Common to all, as to assay type: cell-based
Assay [1] addresses T1, Brd4 (Homo sapiens, UniProt O60885).
T1 construct: endogenous in cells; host or cells: HEK293, HAP1, MV4-11
The assay is described as follows: Negative SAR: Brd4 immunoblot in HEK293 cells, active vs negative control. The following applies: HEK293, 1 μM, 6 h, three independent treatments. How it is done: (§1) Immunoblotting. proteins were separated by SDS-PAGE on NuPage 4-12% Bis-Tris gels, followed by transfer to Amersham Protran 0.45 NC nitrocellulose membrane (GE Healthcare) using wet transfer. Membranes were blocked using 5% w/v milk in Tris-buffered saline (TBS) with 0.1% Tween-20. Blots were probed (overnight at 4° C.) using anti-Brd2 (Abcam ab139690, 1:2,000 dilution), anti-Brd3 (Abcam ab50818, 1:500 dilution), and anti-Brd4 (Abcam ab128874, 1:1,000 dilution) primary antibodies, as appropriate. The next day, blots were washed with TBST and incubated (1 hr at RT) with anti-Tubulin hFAB-rhodamine (BioRad, 12004166) primary antibody, and either anti-rabbit IRDye 800CW (Licor 1:10,000 dilution) or anti-mouse IRDye 800CW (Licor 1:10,000 dilution) secondary antibody. Blots were developed using a Bio-Rad ChemiDoc MP Imaging System, and band quantification was performed using Image Studio software (LiCor). Band intensities were normalized to the tubulin loading control and reported as % of the average 0.1% DMSO vehicle intensity. Degradation data was plotted and analysed using Prism (Graphpad, version 8).
HEK293 (1×10^6) cells incubated with DMSO, 1 μM 05IB11 or 1 μM 05IB6 for 6 h with a final DMSO concentration of 0.1% v/v. Cells from three independent treatments (n=3) were lysed with RIPA buffer and immunoblotted for Brd4 and β-tubulin.

The target in assay [2] is T1, Brd4. The assay is described as follows: Mechanistic evaluation of Brd4 degradation in HAP1 cells (bortezomib, degrasyn or I-BET726 pre-treatment). As to conditions: 6 h. As for the experimental part: as §1
HAP1 (1×10^6) cells were seeded in standard 6-well plates (2 mL medium) overnight before pre-treatment with inhibitors (10 μM bortezomib, 5 μM degrasyn or 1 μM I-BET726). After a 0.5 h pre-incubation time, cells were subsequently treated with vehicle, 0.1 μM MZ1 or 0.1 μM 05IB9, yielding a final overall DMSO concentration of 0.2% v/v. After 6 h incubation, cells were washed with DPBS (Gibco) and lysed using 85 μL RIPA buffer (Sigma-Aldrich) supplemented with cOmplete Mini EDTA-free protease inhibitor cocktail (Roche) and benzonase. Lysates were clarified by centrifugation (20,000 g, 10 min, 4° C.) and the total protein content of the supernatant was quantified using a Bradford colorimetric assay. Samples were prepared using equal amounts of total protein and LDS sample buffer (Invitrogen).
Representative blots from HAP1 lysates in FIG. 9 show depletion of Brd4 protein levels following 6 h treatment with 0.1 μM 05IB9 or MZ1, in the presence and absence of 5 μM degrasyn and 10 μM bortezomib. Brd4 band intensities were normalized to β-tubulin loading control and reported in FIG. 9B as % of the average 0.1% DMSO vehicle intensity. Each bar is mean±SEM of three independent experiments performed in duplicate (n=3). […] Furthermore, excess […] competes with 05IB9, resulting in reduced degradation of Brd4.

Assay [3] addresses T1, Brd4. The assay is described as follows: Immunoblot in MV4-11 cells. The following applies: MV4-11, 6 h, increasing concentrations. How it is done:
(§2) MV4-11 (0.7×10^6 cells/mL) were seeded in 10 cm plates (10 mL DMEM supplemented with 10% FBS and L-glutamine) overnight before treatment with compounds at the desired concentration and with a final DMSO concentration of 0.1% v/v. After 6 h incubation time, cells were washed 2× with DPBS (Gibco) and lysed using 85 μL RIPA buffer (Sigma-Aldrich) supplemented with cOmplete Mini EDTA-free protease inhibitor cocktail (Roche) and benzonase. Lysates were clarified by centrifugation (20,000 g, 10 min, 4° C.) and the total protein content of the supernatant was quantified using a Bradford colorimetric assay. Samples were prepared using equal amounts of total protein and LDS sample buffer (Invitrogen). For immunoblot analysis, the following antibodies were used: anti-Brd2 (ab139690, 1:2,000 dilution), anti-Brd3 (ab50818, 1:500 dilution), anti-Brd4 (ab128874, 1:1,000 dilution), anti-c-myc (ab32072, 1:1,000 dilution), anti- total PARP (BD Bioscience #556494; 1:1,000 dilution), anti-cleaved PARP (CST-9541T, 1:1,000 dilution), and anti-Tubulin hFAB-rhodamine (BioRad, 12004166, 1:10,000 dilution).
(In general: In western blotting, separated proteins are transferred to a membrane and probed.)

The next assay has as its system c-MYC. The assay is described as follows: Immunoblot of c-MYC levels in MV4-11 cells. As to conditions: MV4-11, 6 h. As for the experimental part: as §2
Another assay has as its system PARP. The assay is described as follows: Immunoblot of total and cleaved PARP in MV4-11 cells. The following applies: MV4-11, 6 h. How it is done:
as §2

Another assay has as its target Brd2 (Homo sapiens, UniProt P25440). The assay is described as follows: Immunoblot in MV4-11 cells. Further details: endogenous in cells; host or cells: MV4-11. As to conditions: MV4-11, 6 h, increasing concentrations. As for the experimental part:
as §2

For another assay, the target named is Brd3 (Homo sapiens, UniProt Q15059). The assay is described as follows: Immunoblot in MV4-11 cells. Further details: endogenous in cells; host or cells: MV4-11. The following applies: MV4-11, 6 h, increasing concentrations. How it is done:
as §2

Brd3, sequence (Q15059 whole entry): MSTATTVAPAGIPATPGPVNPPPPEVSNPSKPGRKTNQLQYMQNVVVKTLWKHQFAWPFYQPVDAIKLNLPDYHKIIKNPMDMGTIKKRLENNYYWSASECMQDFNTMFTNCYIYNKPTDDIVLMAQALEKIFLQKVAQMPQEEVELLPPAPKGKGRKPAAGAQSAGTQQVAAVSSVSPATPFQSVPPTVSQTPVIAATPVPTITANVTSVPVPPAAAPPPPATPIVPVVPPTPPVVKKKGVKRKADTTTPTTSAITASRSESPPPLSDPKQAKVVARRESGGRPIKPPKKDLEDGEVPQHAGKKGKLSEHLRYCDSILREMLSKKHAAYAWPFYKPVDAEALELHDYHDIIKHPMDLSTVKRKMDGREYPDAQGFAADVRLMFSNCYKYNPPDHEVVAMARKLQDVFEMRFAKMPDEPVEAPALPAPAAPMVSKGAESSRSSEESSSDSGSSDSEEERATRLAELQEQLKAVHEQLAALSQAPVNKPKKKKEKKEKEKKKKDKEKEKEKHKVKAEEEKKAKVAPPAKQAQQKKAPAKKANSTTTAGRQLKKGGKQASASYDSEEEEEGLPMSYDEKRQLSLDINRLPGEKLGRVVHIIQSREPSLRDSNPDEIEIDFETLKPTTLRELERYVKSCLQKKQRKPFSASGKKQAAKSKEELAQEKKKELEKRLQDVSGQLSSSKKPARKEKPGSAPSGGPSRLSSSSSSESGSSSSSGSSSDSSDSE
Brd2, sequence (P25440 whole entry): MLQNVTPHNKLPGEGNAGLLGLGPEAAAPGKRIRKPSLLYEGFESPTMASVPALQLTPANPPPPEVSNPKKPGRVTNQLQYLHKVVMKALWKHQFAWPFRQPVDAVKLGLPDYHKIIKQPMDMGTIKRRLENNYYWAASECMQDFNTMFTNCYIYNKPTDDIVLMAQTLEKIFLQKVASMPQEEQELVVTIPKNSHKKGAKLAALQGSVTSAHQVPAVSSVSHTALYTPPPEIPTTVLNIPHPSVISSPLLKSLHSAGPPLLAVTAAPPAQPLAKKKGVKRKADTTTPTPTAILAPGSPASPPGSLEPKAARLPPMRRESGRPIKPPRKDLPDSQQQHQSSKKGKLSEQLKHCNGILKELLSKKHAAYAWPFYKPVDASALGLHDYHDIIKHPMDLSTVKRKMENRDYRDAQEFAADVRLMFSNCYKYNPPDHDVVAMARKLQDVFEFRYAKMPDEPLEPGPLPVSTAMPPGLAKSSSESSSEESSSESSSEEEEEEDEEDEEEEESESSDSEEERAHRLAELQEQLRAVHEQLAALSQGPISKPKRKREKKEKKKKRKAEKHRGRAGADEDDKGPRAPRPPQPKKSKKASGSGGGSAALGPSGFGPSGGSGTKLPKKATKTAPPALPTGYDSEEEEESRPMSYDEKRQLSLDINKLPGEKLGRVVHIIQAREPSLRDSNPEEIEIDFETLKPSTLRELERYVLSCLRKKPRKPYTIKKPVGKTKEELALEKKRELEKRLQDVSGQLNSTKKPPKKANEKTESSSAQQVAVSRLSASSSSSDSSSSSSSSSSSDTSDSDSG

Regarding `CCCC(NC(=O)/C(C#N)=C/c1cccc(Br)n1)c1ccc(OCCOCCOCCOCCOCCOCCOCCNC(=O)c2ccc(-c3ccc4c(c3)[C@H](Nc3ccc(Cl)cc3)C[C@H](C)N4C(C)=O)cc2)cc1` (some centres unmarked) [Example 05IB6], the Brd4 levels result on Brd4 [1] is “significant depletion”.

With `CCCC(NC(=O)/C(C#N)=C/c1nccs1)c1ccc(OCCOCCOCCOCCOCCOCCOCCNC(=O)c2ccc(-c3ccc4c(c3)[C@H](Nc3ccc(Cl)cc3)C[C@H](C)N4C(C)=O)cc2)cc1` (some centres unmarked) [Example 05IB9], at Brd4 [2] (HAP1, 0.1 μM compound, 0.5 h pre-treatment with 10 μM bortezomib or 5 μM degrasyn), the “Brd4 degradation in the presence of bortezomib or degrasyn” value is “completely blocked in the presence of bortezomib and degrasyn”. Besides, the Brd4 protein levels entry on Brd4 [2] (HAP1, 0.1 μM) is “depletion”. For the same compound, the Brd4 levels entry on Brd4 [3] is reported as “depletion”. Further, the “decrease in c-MYC compared with inhibitor and negative control” value with c-MYC is “greater than inhibitor (I-BET726) alone and the negative control (05IB11)”. Also, in the assay on c-MYC (increasing concentrations), the c-MYC levels result is “depletion”. For the same compound, the “increase in C-PARP compared with inhibitor and negative control” value in the assay with PARP is “greater than inhibitor (I-BET726) alone and the negative control (05IB11)”. In the assay with PARP (increasing concentrations), the “cleaved PARP” value is recorded as “increase” and the “total PARP levels” value was “depletion”. Also, the Brd2 levels entry on Brd2 is “depletion”. In addition, the Brd3 levels entry on Brd3 is recorded as “depletion”.

The values above are taken from patent US20210283139A1, “BIFUNCTIONAL MOLECULES FOR TARGETING UCHL5” (AMPHISTA THERAPEUTICS LTD, priority 2018, published 2021).
